In ChEMBL document CHEMBL5131551, “Novel Bicyclic Dione Compounds as KRAS Inhibitors for Treating Cancer” (ACS Med Chem Lett, 2022) one finds IC50 data, which are given here for six compounds.

Test [1] deals with T1, GTPase KRas (Homo sapiens, UniProt P01116, G12C). The experiment in a line: Inhibition of KRAS G12C mutant in human MIA PaCa-2 cells assessed as reduction in phosphorylated ERK level incubation for 2 to 4 hrs by HTRF assay. It counts as cell-based. A general note: TR-FRET usually uses a lanthanide donor and a delayed reading to cut background.
Test [2] deals with T1, GTPase KRas. The experiment in a line: Inhibition of BODIPY loaded KRAS G12C mutant (unknown origin) assessed as inhibition of GDP-GTP exchange rate preincubated for 2 hrs and measured after 2 hrs in presence of SOS1-GppNHp mixture by BODIPY fluorescence based PHERAstar plate reader analysis.

T1 sequence (P01116 whole entry G12C): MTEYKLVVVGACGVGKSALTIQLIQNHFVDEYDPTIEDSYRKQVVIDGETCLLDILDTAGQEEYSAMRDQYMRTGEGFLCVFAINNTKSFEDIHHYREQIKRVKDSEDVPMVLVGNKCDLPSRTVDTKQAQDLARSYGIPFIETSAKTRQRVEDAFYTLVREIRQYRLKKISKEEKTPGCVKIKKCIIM

In the case of `C=CC(=O)N1CC(F)(Cn2c(=O)c(=O)n(-c3c(C)ccnc3C(C)C)c3nc(-c4cccc(Cl)c4Cl)c(Cl)cc32)C1`, the IC50 in test [1] and in test [2] was ≤ 100 nM throughout.
With `C=CC(=O)N1CC(F)(Cn2c(=O)c(=O)n(-c3c(C)ccnc3C(C)C)c3nc(-c4c(F)ccc(F)c4O)c(Cl)cc32)C1`, the IC50 in test [1] and in test [2] was ≤ 100 nM throughout.
As for `C=CC(=O)N1CC(F)(Cn2c(=O)c(=O)n(-c3c(C)ccnc3C(C)C)c3nc(-c4ccccc4F)c(Cl)cc32)C1`, the concentration for half-maximal inhibition (IC50) in test [1] and in test [2] was ≤ 100 nM throughout.
In the case of `C=CC(=O)N1CC(F)(Cn2c(=O)c(=O)n(-c3c(C)ccnc3C(C)C)c3nc(-c4c(N)cccc4F)c(Cl)cc32)C1`, the IC50 in test [1] and in test [2] was ≤ 100 nM in each case.
For the compound `C=CC(=O)N1CC(F)(Cn2c(=O)c(=O)n(-c3c(C(C)C)cccc3C(C)C)c3nc(-c4cc(O)cc5ccccc45)c(Cl)cc32)C1`, the 50% inhibitory concentration (IC50) in test [1] and in test [2] was ≤ 100 nM in each case.
On to `C=CC(=O)N1CC(F)(Cn2c(=O)c(=O)n(-c3c(C)ccnc3C(C)C)c3nc(-c4c(Cl)ccc5c4OCO5)c(Cl)cc32)C1`, for which the IC50 in test [1] and in test [2] was ≤ 100 nM in each case.

As usually defined, the IC50 is the concentration needed to halve the response being measured.
